In patent US20040198731A1, “Aminoalkyl-substituted aromatic bicyclic compounds, methods for their preparation and their use as pharmaceuticals” (Aventis Pharma Deutschland GmbH, priority 2001, published 2004):

target: T1, human MCH receptor (Homo sapiens, UniProt Q99705); experiment: Functional measurement of cellular calcium flow (FLIPR) in recombinant HEK293 cells expressing human MCH receptor; type: cell-based; conditions: cellular assay, calcium flow after addition of agonist (MCH), HEK293 (PEAK Stable Cells) expressing human MCH receptor
T1 construct: expressed in transfected cells
T1 sequence (Q99705 whole entry): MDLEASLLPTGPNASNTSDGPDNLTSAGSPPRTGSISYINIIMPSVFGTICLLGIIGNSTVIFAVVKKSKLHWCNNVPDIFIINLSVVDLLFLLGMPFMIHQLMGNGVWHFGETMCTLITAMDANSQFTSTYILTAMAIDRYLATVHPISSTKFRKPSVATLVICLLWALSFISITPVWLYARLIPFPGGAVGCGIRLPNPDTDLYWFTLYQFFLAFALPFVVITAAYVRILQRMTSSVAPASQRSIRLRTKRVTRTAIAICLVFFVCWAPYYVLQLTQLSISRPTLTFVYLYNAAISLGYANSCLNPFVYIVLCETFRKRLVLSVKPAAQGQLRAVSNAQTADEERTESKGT
Source text: In two simultaneously published articles in Nature (Nature, 400:261-264, 1999; Nature, 400:265-269, 1999, see enclosure), two groups separately described a highly specific receptor for melanin-concentrating hormone (MCH). MCH takes over important functions in the control of food intake. Compounds acting on the MCH receptor therefore have anorectic action and are suitable for the treatment of obesity. The test for anorectic action of the inventive compounds of formula I was therefore carried out as follows.
Functional measurements for determination of IC50
Cloning of the cDNA for human MCH receptor, preparation of a recombinant HEK293 cell line expressing human MCH receptor and functional measurements with said recombinant cell line were carried out according to the description by Audinot et al. (J. Biol. Chem., 276, 13554-13562, 2001). In contrast to the reference, however, plasmid pEAK8 from EDGE Biosystems (USA) was used for constructing the expression vector. A transformed HEK cell line named “PEAK Stable Cells” (likewise from EDGE Biosystems) served as host for transfection. The functional measurements of cellular calcium flow, after addition of agonists (MCH), in the presence of the ligand of the invention was carried out with the aid of the FLIPR instrument from Molecular Devices (USA), using the manufacturer's protocols.

Structure (SMILES) | IC50
CCCCOc1ccc(NC(=O)Nc2ccc3c(ccn3CCN(C)C)c2)cc1 [Example 2, 1-(4-Butoxyphenyl)-3-[1-(2-dimethylaminoethyl)-1H-indol-5-yl]urea] | 150 nM
Cn1c(CN2CCCC2)cc2cc(NC(=O)Nc3ccc(Oc4ccccc4)cc3)ccc21 [Example 3, 1-(1-Methyl-2-pyrrolidin-1-ylmethyl-1H-indol-5-yl)-3-(4-phenoxyphenyl)urea] | 290 nM
Cc1nc2cc(NC(=O)Nc3ccc(OC(C)C)cc3)ccc2n1CCN(C)C [Example 5, 1-[1-(2-Dimethylaminoethyl)-2-methyl-1H-benzoimidazol-5-yl]-3-(4-isopropoxyphenyl)urea] | 500 nM
CCN1CCCC1Cn1c(C)nc2cc(NC(=O)Nc3ccc(OC(C)C)cc3)ccc21 (stereo not shown) [Example 6, 1-[1-(1-Ethylpyrrolidin-2-ylmethyl)-2-methyl-1H-benzoimidazol-5-yl]-3-(4-isopropoxyphenyl)urea] | 2340 nM
Cc1nc2cc(NC(=O)Nc3ccc(OC(C)C)cc3)ccc2n1CCN1CCCCC1 [Example 7, 1-(4-Isopropoxyphenyl)-3-[2-methyl-1-(2-piperidin-1-ylethyl)-1H-benzoimidazol-5-yl]urea] | 450 nM
Cc1nc2cc(NC(=O)Nc3ccc(OC(C)C)cc3)ccc2n1CCN1CCOCC1 [Example 8, 1-(4-Isopropoxyphenyl)-3-[2-methyl-1-(2-morpholin-4-yl-ethyl)-1H-benzoimidazol-5-yl]urea] | 1900 nM
O=C(Nc1ccc(Oc2ccccc2)cc1)Nc1ccc2c(c1)ncn2CCN1CCCC1 [Example 11, 1-(4-Phenoxyphenyl)-3-[1-(2-pyrrolidin-1-ylethyl)-1H-benzoimidazol-5-yl]urea] | 140 nM
CCc1nc2cc(NC(=O)Nc3ccc(Oc4ccccc4)cc3)ccc2n1CCN1CCCC1 [Example 14, 1-[2-Ethyl-1-(2-pyrrolidin-1-ylethyl)-1H-benzoimidazol-5-yl]-3-(4-phenoxyphenyl)urea] | 300 nM
CN(C)CCn1ccc2cc(NC(=O)Nc3ccc(N4CCCC4)cc3)ccc21 [Example 22, 1-[1-(2-Di-methylaminoethyl)-1H-in-dol-5-yl]-3-(4-pyr-rolidin-1-ylphe-nyl)urea] | 4420 nM
CN(C)CCn1ccc2cc(NC(=O)Nc3ccc(N4CC=CCC4)cc3)ccc21 [Example 24, 1-[4-(3,6-Dihydro-2H-py-ridin-1-yl)phenyl]-3-[1-(2-di-methylaminoethyl)-1H-in-dol-5-yl]urea] | 860 nM
CN(C)CCn1ccc2cc(NC(=O)Nc3ccc(N4CCSCC4)cc3)ccc21 [Example 26, 1-[1-(2-Di-methylaminoethyl)-1H-in-dol-5-yl]-3-(4-thio-morpholin-4-yl-phe-nyl)urea] | 920 nM
CC1CCCN(c2ccc(NC(=O)Nc3ccc4c(ccn4CCN(C)C)c3)cc2)C1 (stereo not shown) [Example 29, 1-[1-(2-Di-methylaminoethyl)-1H-in-dol-5-yl]-3-[4-(3-methyl-piperidin-1-yl)phe-nyl]urea] | 2910 nM
CC1CCN(c2ccc(NC(=O)Nc3ccc4c(ccn4CCN(C)C)c3)cc2)CC1 [Example 33, 1-[1-(2-Di-methylaminoethyl)-1H-in-dol-5-yl]-3-[4-(4-methyl-piperidin-1-yl)phe-nyl]urea] | 1240 nM
CC(C)COc1ccc(NC(=O)Nc2ccc3c(ccn3CCN(C)C)c2)c(F)c1 [Example 63, 1-[1-(2-Dimethyl-aminoethyl)-1H-in-dol-5-yl]-3-(2-fluoro-4-iso-butoxyphenyl)urea] | 570 nM
CC(C)COc1ccc(NC(=O)Nc2ccc3c(ccn3CCN(C)C)c2)cc1F [Example 65, 1-[1-(2-Dimethyl-aminoethyl)-1H-in-dol-5-yl]-3-(3-fluoro-4-iso-butoxyphenyl)urea] | 500 nM
CCCCc1ccc(NC(=O)Nc2ccc3c(ccn3CCN(C)C)c2)cc1 [Example 71, 1-(4-Butylphenyl)-3-[1-(2-di-methylaminoethyl)-1H-in-dol-5-yl]urea] | 2650 nM
CC(C)COc1ccc(NC(=O)Nc2ccc3c(ccn3CCN(C)C)c2)cc1 [Example 72, 1-[1-(2-Dimethyl-aminoethyl)-1H-in-dol-5-yl]-3-(4-iso-butoxyphenyl)urea] | 320 nM
COc1ccccc1Oc1ccc(NC(=O)Nc2ccc3c(ccn3CCN(C)C)c2)cc1 [Example 76] | 4250 nM
COc1cc(Nc2ccccc2)ccc1NC(=O)Nc1ccc2c(ccn2CCN(C)C)c1 [Example 79, 1-[1-(2-Dimethyl-aminoethyl)-1H-indol-5-yl]-3-(2-meth-oxy-4-phenyl-aminophenyl)-urea] | 2130 nM

More lines, now with the values ahead:

IC50 | Structure (SMILES)
100 nM | Cc1nc2cc(NC(=O)Nc3ccc(Oc4ccccc4)cc3)ccc2n1CCN1CCCC1 [Example 9]
110 nM | Cc1nc2cc(NC(=O)Nc3ccc(Oc4ccccc4)cc3)ccc2n1CCN(C)C [Example 10, 1-[2-Methyl-1-(2-dimethylaminoethyl)-1H-benzoimidazol-5-yl]-3-(4-phenoxyphenyl)urea]
2500 nM | CN(C)CCn1c(-c2ccccc2)nc2cc(NC(=O)Nc3ccc(Oc4ccccc4)cc3)ccc21 [Example 13, 1-[1-(2-Dimethylaminoethyl)-2-phenyl-1H-benzoimidazol-5-yl]-3-(4-phenoxyphenyl)urea]
180 nM | Cc1nc2cc(NC(=O)Nc3ccc(Oc4ccccc4)cc3)ccc2n1CCN1CCCCC1 [Example 15, 1-[2-Methyl-1-(2-piperidin-1-ylethyl)-1H-benzoimidazol-5-yl]-3-(4-phenoxyphenyl) urea]
330 nM | CCN1CCCC1Cn1c(C)nc2cc(NC(=O)Nc3ccc(Oc4ccccc4)cc3)ccc21 (stereo not shown) [Example 16, 1-[1-(1-Ethylpyrrolidin-2-ylmethyl)-2-methyl-1H-benzoimidazol-5-yl]-3-(4-phenoxy-phenyl)urea]
2140 nM | CN(C)Cc1nc2cc(NC(=O)Nc3ccc(Oc4ccccc4)cc3)ccc2[nH]1 [Example 17, 1-(2-Dimethylaminomethyl-1H-benzoimidazol-5-yl)-3-(4-phenoxyphenyl)urea]
1040 nM | Cc1c(C)n(CCN(C)C)c2ccc(NC(=O)Nc3ccc(Oc4ccccc4)cc3)cc12 [Example 18, 1-[1-(2-Dimethylaminoethyl)-2,3-dimethyl-1H-indol-5-yl]-3-(4-phenoxyphenyl)urea]
700 nM | Cc1cc2cc(NC(=O)Nc3ccc(Oc4ccccc4)cc3)ccc2n1CCN(C)C [Example 19, 1-[1-(2-Dimethylaminoethyl)-2-methyl-1H-indol-5-yl]-3-(4-phenoxyphenyl)urea]
140 nM | CN(C)CCn1ccc2cc(NC(=O)Nc3ccc(Oc4cccnc4)cc3)ccc21 [Example 73, 1-[1-(2-Dimethyl-aminoethyl)-1H-in-dol-5-yl]-3-[4-(py-ridin-3-yloxy)phe-nyl]urea]
700 nM | CN(C)CCn1ccc2cc(NC(=O)Nc3ccc(Oc4cccc(Cl)c4)cc3)ccc21 [Example 77, 1-[4-(3-Chloro-phenoxy)-phe-nyl]-3-[1-(2-dimethyl-aminoethyl)-1H-in-dol-5-yl]urea]
2750 nM | CN(C)CCn1ccc2cc(NC(=O)Nc3ccc(-c4ccccc4)cc3)ccc21 [Example 78, 1-Biphenyl-4-yl-3-[1-(2-di-methylaminoethyl)-1H-in-dol-5-yl]urea]
3360 nM | CN(C)CCn1ccc2cc(NC(=O)Nc3ccc(OCc4ccccc4)cc3)ccc21 [Example 80, 1-(4-Benzyloxyphenyl)-3-[1-(2-di-methylaminoethyl)-1H-in-dol-5-yl]urea]
